Results as given in PubChem BioAssay (NCI).
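Briefly, cells in 96-well plates were exposed to five compound concentrations for 48 h, and endpoints were estimated by linear interpolation. GI50 marks 50% less growth. TGI: concentration producing complete growth inhibition.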

Key:
Assay in all cases: NCI anticancer screen, dose series, 48 h
SNB-75 CNS = tested on: SNB-75 CNS
SF-539 CNS = tested on: SF-539 CNS
K-562 leukemia = tested on: K-562 leukemia
TK-10 renal = tested on: TK-10 renal
LOX IMVI melanoma = tested on: LOX IMVI melanoma
U251 CNS = tested on: U251 CNS
EKVX NSCLC = tested on: EKVX NSCLC
SR leukemia = tested on: SR leukemia
KM12 colon = tested on: KM12 colon
T-47D breast = tested on: T-47D breast
MCF7 breast = tested on: MCF7 breast
OVCAR-4 ovarian = tested on: OVCAR-4 ovarian
A498 renal = tested on: A498 renal
PC-3 prostate = tested on: PC-3 prostate
SK-MEL-28 melanoma = tested on: SK-MEL-28 melanoma
HS 578T breast = tested on: HS 578T breast
SNB-19 CNS = tested on: SNB-19 CNS
UACC-257 melanoma = tested on: UACC-257 melanoma
MDA-MB-435 = tested on: MDA-MB-435
SN12C renal = tested on: SN12C renal
CAKI-1 renal = tested on: CAKI-1 renal
COLO 205 colon = tested on: COLO 205 colon
OVCAR-8 ovarian = tested on: OVCAR-8 ovarian
UO-31 renal = tested on: UO-31 renal
NCI-H23 lung = tested on: NCI-H23 lung
SW-620 colon = tested on: SW-620 colon
NCI/ADR-RES ovarian = tested on: NCI/ADR-RES ovarian
OVCAR-5 ovarian = tested on: OVCAR-5 ovarian
NCI-H460 lung = tested on: NCI-H460 lung
MALME-3M melanoma = tested on: MALME-3M melanoma
HOP-62 NSCLC = tested on: HOP-62 NSCLC
OVCAR-3 ovarian = tested on: OVCAR-3 ovarian
A549 NSCLC = tested on: A549 NSCLC
SF-268 CNS = tested on: SF-268 CNS
786-0 renal = tested on: 786-0 renal
MOLT-4 leukemia = tested on: MOLT-4 leukemia
M14 melanoma = tested on: M14 melanoma
HCT-116 colon = tested on: HCT-116 colon
CCRF-CEM leukemia = tested on: CCRF-CEM leukemia
UACC-62 melanoma = tested on: UACC-62 melanoma
NCI-H522 lung = tested on: NCI-H522 lung
RPMI-8226 leukemia = tested on: RPMI-8226 leukemia
MDA-MB-231 breast = tested on: MDA-MB-231 breast
IGROV1 ovarian = tested on: IGROV1 ovarian
HL-60(TB) leukemia = tested on: HL-60(TB) leukemia
NCI-H226 lung = tested on: NCI-H226 lung
HCC-2998 colon = tested on: HCC-2998 colon
HT29 colon = tested on: HT29 colon
HCT-15 colon = tested on: HCT-15 colon
RXF 393 renal = tested on: RXF 393 renal
SF-295 CNS = tested on: SF-295 CNS
SK-MEL-2 melanoma = tested on: SK-MEL-2 melanoma
BT-549 breast = tested on: BT-549 breast
HOP-92 NSCLC = tested on: HOP-92 NSCLC
SK-OV-3 ovarian = tested on: SK-OV-3 ovarian
ACHN renal = tested on: ACHN renal
DU-145 prostate = tested on: DU-145 prostate

Work on O=C(O)c1ccc2cccnc2c1O yielded a GI50 (SNB-75 CNS) of 1510 nM, a TGI (SNB-75 CNS) greater than 100000 nM and a GI50 (SF-539 CNS) of 1190 nM. The TGI (SF-539 CNS) was 12800 nM, the GI50 (K-562 leukemia) was 896 nM and the TGI (K-562 leukemia) was greater than 100000 nM. It also gave a GI50 (TK-10 renal) of 1850 nM, a TGI (TK-10 renal) greater than 100000 nM and a GI50 (LOX IMVI melanoma) of 897 nM. It also gave a TGI (LOX IMVI melanoma) of 28400 nM, a GI50 (U251 CNS) of 672 nM and a TGI (U251 CNS) greater than 59400 nM. For the same compound, the GI50 (EKVX NSCLC) was 1750 nM, the TGI (EKVX NSCLC) was greater than 46000 nM and the GI50 (SR leukemia) was 2230 nM. It also gave a TGI (SR leukemia) greater than 100000 nM, a GI50 (KM12 colon) of 2020 nM and a TGI (KM12 colon) of 25000 nM. It also gave a GI50 (T-47D breast) of 2180 nM, a TGI (T-47D breast) of 9900 nM and a GI50 (MCF7 breast) of 1500 nM. The TGI (MCF7 breast) was greater than 100000 nM, the GI50 (OVCAR-4 ovarian) was 411 nM and the TGI (OVCAR-4 ovarian) was greater than 100000 nM. For the same compound, the TGI (A498 renal) was greater than 92400 nM, the TGI (PC-3 prostate) was greater than 100000 nM and the GI50 (SK-MEL-28 melanoma) was 3690 nM. It also gave a TGI (SK-MEL-28 melanoma) greater than 100000 nM, a GI50 (HS 578T breast) of 724 nM and a TGI (HS 578T breast) greater than 79800 nM. The GI50 (SNB-19 CNS) was 1480 nM, the TGI (SNB-19 CNS) was greater than 100000 nM and the GI50 (UACC-257 melanoma) was 2020 nM. For the same compound, the TGI (UACC-257 melanoma) was 5290 nM, the GI50 (MDA-MB-435) was 870 nM and the TGI (MDA-MB-435) was 35800 nM. It also gave a GI50 (SN12C renal) of 797 nM, a TGI (SN12C renal) greater than 72200 nM and a GI50 (CAKI-1 renal) of 2160 nM. It also gave a TGI (CAKI-1 renal) of 13800 nM, a GI50 (COLO 205 colon) of 4230 nM and a TGI (COLO 205 colon) of 10100 nM. For the same compound, the GI50 (OVCAR-8 ovarian) was 1270 nM, the TGI (OVCAR-8 ovarian) was greater than 59100 nM and the GI50 (UO-31 renal) was 1140 nM. The TGI (UO-31 renal) was 8650 nM, the GI50 (NCI-H23 lung) was 1050 nM and the TGI (NCI-H23 lung) was 29100 nM. It also gave a GI50 (SW-620 colon) of 2000 nM, a TGI (SW-620 colon) greater than 100000 nM and a GI50 (NCI/ADR-RES ovarian) of 1330 nM. It also gave a TGI (NCI/ADR-RES ovarian) of 36200 nM, a GI50 (OVCAR-5 ovarian) of 2140 nM and a TGI (OVCAR-5 ovarian) greater than 100000 nM. It also gave a GI50 (NCI-H460 lung) of 551 nM, a TGI (NCI-H460 lung) of 11100 nM and a GI50 (MALME-3M melanoma) of 1840 nM. The TGI (MALME-3M melanoma) was 4410 nM, the GI50 (HOP-62 NSCLC) was 1370 nM and the TGI (HOP-62 NSCLC) was 41600 nM. The GI50 (OVCAR-3 ovarian) was 1680 nM, the TGI (OVCAR-3 ovarian) was 5220 nM and the GI50 (A549 NSCLC) was 747 nM. For the same compound, the TGI (A549 NSCLC) was 25800 nM, the GI50 (SF-268 CNS) was 999 nM and the TGI (SF-268 CNS) was 98500 nM. The GI50 (786-0 renal) was 2400 nM, the TGI (786-0 renal) was 24800 nM and the GI50 (MOLT-4 leukemia) was 1820 nM. The TGI (MOLT-4 leukemia) was greater than 70300 nM, the GI50 (M14 melanoma) was 1530 nM and the TGI (M14 melanoma) was 26600 nM. The GI50 (HCT-116 colon) was 532 nM, the TGI (HCT-116 colon) was 25000 nM and the GI50 (CCRF-CEM leukemia) was 989 nM. For the same compound, the TGI (CCRF-CEM leukemia) was greater than 60800 nM, the GI50 (UACC-62 melanoma) was 1540 nM and the TGI (UACC-62 melanoma) was 9640 nM. It also gave a GI50 (NCI-H522 lung) of 948 nM, a TGI (NCI-H522 lung) of 13300 nM and a GI50 (RPMI-8226 leukemia) of 930 nM. For the same compound, the TGI (RPMI-8226 leukemia) was greater than 21100 nM, the TGI (MDA-MB-231 breast) was greater than 100000 nM and the GI50 (IGROV1 ovarian) was 1380 nM. The TGI (IGROV1 ovarian) was 25800 nM, the GI50 (HL-60(TB) leukemia) was 1890 nM and the TGI (HL-60(TB) leukemia) was 6430 nM. For the same compound, the GI50 (NCI-H226 lung) was 1950 nM, the TGI (NCI-H226 lung) was greater than 56000 nM and the GI50 (HCC-2998 colon) was 2320 nM. For the same compound, the TGI (HCC-2998 colon) was 37500 nM, the GI50 (HT29 colon) was 2430 nM and the TGI (HT29 colon) was greater than 79000 nM. It also gave a GI50 (HCT-15 colon) of 994 nM, a TGI (HCT-15 colon) greater than 100000 nM and a GI50 (RXF 393 renal) of 1940 nM. The TGI (RXF 393 renal) was 36400 nM, the GI50 (SF-295 CNS) was 52.1 nM and the TGI (SF-295 CNS) was 474 nM. The GI50 (SK-MEL-2 melanoma) was 1950 nM, the TGI (SK-MEL-2 melanoma) was 7460 nM and the GI50 (BT-549 breast) was 561 nM. The TGI (BT-549 breast) was greater than 20000 nM, the GI50 (HOP-92 NSCLC) was 832 nM and the TGI (HOP-92 NSCLC) was 2740 nM. The GI50 (SK-OV-3 ovarian) was 1700 nM, the TGI (SK-OV-3 ovarian) was 4890 nM and the GI50 (ACHN renal) was 1700 nM. For the same compound, the TGI (ACHN renal) was 11300 nM, the GI50 (DU-145 prostate) was 828 nM and the TGI (DU-145 prostate) was 42300 nM.
